Measured values as given in patent publication US20260069588A1, “VEPDEGESTRANT FOR USE IN TREATING CANCER” (Arvinas Operation, Inc., priority 2022, published 2026).

Assay: Phase 1 single agent studies in Japanese and Chinese participants (C4891016, C4891018): adverse events
[1] = TEAE treatment related, 200 mg, N = 15

Source text: TEAE's from participants in both studies have been combined and are described below.

O=C1CC[C@H](N2Cc3cc(N4CCN(CC5CCN(c6ccc([C@@H]7c8ccc(O)cc8CC[C@@H]7c7ccccc7)cc6)CC5)CC4)ccc3C2=O)C(=O)N1 [Compound A, (S)-3-(5-(4-((1-(4-((1R,2S)-6-hydroxy-2-phenyl-1,2,3,4-tetrahydronaphthalen-1-yl)phenyl)piperidin-4-yl)methyl)piperazin-1-yl)-1-oxoisoindolin-2-yl)piperidine-2,6-dione]
participants with a TRAE (200 mg): 11 of 15 participants | participants with a TEAE (200 mg, 15 evaluable): 73.3% | participants with grade 3-4 TEAE (200 mg, 15 evaluable): 33.4% | TEAE Alanine aminotransferase increased (200 mg, N=15): 26.7% | TEAE anemia (200 mg, N=15): 40.0% | TEAE electrocardiogram QT prolonged (200 mg, N=15): 33.3% | TEAEs constipation, hyperuricemia, hypokalaemia, neutrophil count decreased, each (200 mg, N=15): 20.0% | TRAEs alanine aminotransferase increased and electrocardiogram QT prolonged, each (200 mg, N=15): 20.0% | TRAEs aspartate aminotransferase increased, constipation, hyperuricemia, neutrophil count decreased, each (200 mg, N=15): 13.3% | SAEs (3 participants, 6 Jun 2023): 3 SAEs | Abdominal discomfort, Grade 1 [1]: 1 (6.7) n (%) | Abdominal discomfort, Grade 2 [1]: 0 n (%) | Abdominal discomfort, Grade 3 [1]: 0 n (%) | Abdominal discomfort, Grade 4 [1]: 0 n (%) | Abdominal discomfort, Grade 5 [1]: 0 n (%) | Abdominal discomfort, Missing or Unknown [1]: 0 n (%) | Abdominal discomfort, Total [1]: 1 (6.7) n (%) | Alanine aminotransferase increased, Grade 1 [1]: 3 (20.0) n (%) | Alanine aminotransferase increased, Grade 2 [1]: 0 n (%) | Alanine aminotransferase increased, Grade 3 [1]: 0 n (%) | Alanine aminotransferase increased, Grade 4 [1]: 0 n (%) | Alanine aminotransferase increased, Grade 5 [1]: 0 n (%) | Alanine aminotransferase increased, Missing or Unknown [1]: 0 n (%) | Alanine aminotransferase increased, Total [1]: 3 (20.0) n (%) | Alopecia, Grade 1 [1]: 1 (6.7) n (%) | Alopecia, Grade 2 [1]: 0 n (%) | Alopecia, Grade 3 [1]: 0 n (%) | Alopecia, Grade 4 [1]: 0 n (%) | Alopecia, Grade 5 [1]: 0 n (%) | Alopecia, Missing or Unknown [1]: 0 n (%) | Alopecia, Total [1]: 1 (6.7) n (%) | Anemia, Grade 1 [1]: 0 n (%) | Anemia, Grade 2 [1]: 1 (6.7) n (%) | Anemia, Grade 3 [1]: 0 n (%) | Anemia, Grade 4 [1]: 0 n (%) | Anemia, Grade 5 [1]: 0 n (%) | Anemia, Missing or Unknown [1]: 0 n (%) | Anemia, Total [1]: 1 (6.7) n (%) | Arthralgia, Grade 1 [1]: 1 (6.7) n (%) | Arthralgia, Grade 2 [1]: 0 n (%) | Arthralgia, Grade 3 [1]: 0 n (%) | Arthralgia, Grade 4 [1]: 0 n (%) | Arthralgia, Grade 5 [1]: 0 n (%) | Arthralgia, Missing or Unknown [1]: 0 n (%) | Arthralgia, Total [1]: 1 (6.7) n (%) | Aspartate aminotransferase increased, Grade 1 [1]: 2 (13.3) n (%) | Aspartate aminotransferase increased, Grade 2 [1]: 0 n (%) | Aspartate aminotransferase increased, Grade 3 [1]: 0 n (%) | Aspartate aminotransferase increased, Grade 4 [1]: 0 n (%) | Aspartate aminotransferase increased, Grade 5 [1]: 0 n (%) | Aspartate aminotransferase increased, Missing or Unknown [1]: 0 n (%) | Aspartate aminotransferase increased, Total [1]: 2 (13.3) n (%) | Bilirubin conjugated increased, Grade 1 [1]: 0 n (%) | Bilirubin conjugated increased, Grade 2 [1]: 1 (6.7) n (%) | Bilirubin conjugated increased, Grade 3 [1]: 0 n (%) | Bilirubin conjugated increased, Grade 4 [1]: 0 n (%) | Bilirubin conjugated increased, Grade 5 [1]: 0 n (%) | Bilirubin conjugated increased, Missing or Unknown [1]: 0 n (%) | Bilirubin conjugated increased, Total [1]: 1 (6.7) n (%) | Blood and lymphatic system disorders, Grade 1 [1]: 0 n (%) | Blood and lymphatic system disorders, Grade 2 [1]: 1 (6.7) n (%) | Blood and lymphatic system disorders, Grade 3 [1]: 0 n (%) | Blood and lymphatic system disorders, Grade 4 [1]: 0 n (%) | Blood and lymphatic system disorders, Grade 5 [1]: 0 n (%) | Blood and lymphatic system disorders, Missing or Unknown [1]: 0 n (%) | Blood and lymphatic system disorders, Total [1]: 1 (6.7) n (%) | Blood bilirubin increased, Grade 1 [1]: 0 n (%) | Blood bilirubin increased, Grade 2 [1]: 1 (6.7) n (%) | Blood bilirubin increased, Grade 3 [1]: 0 n (%) | Blood bilirubin increased, Grade 4 [1]: 0 n (%) | Blood bilirubin increased, Grade 5 [1]: 0 n (%) | Blood bilirubin increased, Missing or Unknown [1]: 0 n (%) | Blood bilirubin increased, Total [1]: 1 (6.7) n (%) | Blood bilirubin unconjugated increased, Grade 1 [1]: 1 (6.7) n (%) | Blood bilirubin unconjugated increased, Grade 2 [1]: 0 n (%) | Blood bilirubin unconjugated increased, Grade 3 [1]: 0 n (%) | Blood bilirubin unconjugated increased, Grade 4 [1]: 0 n (%) | Blood bilirubin unconjugated increased, Grade 5 [1]: 0 n (%) | Blood bilirubin unconjugated increased, Missing or Unknown [1]: 0 n (%) | Blood bilirubin unconjugated increased, Total [1]: 1 (6.7) n (%) | Cardiac disorders, Grade 1 [1]: 1 (6.7) n (%) | Cardiac disorders, Grade 2 [1]: 0 n (%) | Cardiac disorders, Grade 3 [1]: 0 n (%) | Cardiac disorders, Grade 4 [1]: 0 n (%) | Cardiac disorders, Grade 5 [1]: 0 n (%) | Cardiac disorders, Missing or Unknown [1]: 0 n (%) | Cardiac disorders, Total [1]: 1 (6.7) n (%) | Constipation, Grade 1 [1]: 2 (13.3) n (%) | Constipation, Grade 2 [1]: 0 n (%) | Constipation, Grade 3 [1]: 0 n (%) | Constipation, Grade 4 [1]: 0 n (%) | Constipation, Grade 5 [1]: 0 n (%) | Constipation, Missing or Unknown [1]: 0 n (%) | Constipation, Total [1]: 2 (13.3) n (%) | Decreased appetite, Grade 1 [1]: 1 (6.7) n (%) | Decreased appetite, Grade 2 [1]: 0 n (%) | Decreased appetite, Grade 3 [1]: 0 n (%) | Decreased appetite, Grade 4 [1]: 0 n (%) | Decreased appetite, Grade 5 [1]: 0 n (%) | Decreased appetite, Missing or Unknown [1]: 0 n (%) | Decreased appetite, Total [1]: 1 (6.7) n (%) | Dizziness, Grade 1 [1]: 1 (6.7) n (%) | Dizziness, Grade 2 [1]: 0 n (%) | Dizziness, Grade 3 [1]: 0 n (%) | Dizziness, Grade 4 [1]: 0 n (%) | Dizziness, Grade 5 [1]: 0 n (%) | Dizziness, Missing or Unknown [1]: 0 n (%) | Dizziness, Total [1]: 1 (6.7) n (%) | Electrocardiogram QT prolonged, Grade 1 [1]: 2 (13.3) n (%) | Electrocardiogram QT prolonged, Grade 2 [1]: 0 n (%) | Electrocardiogram QT prolonged, Grade 3 [1]: 1 (6.7) n (%) | Electrocardiogram QT prolonged, Grade 4 [1]: 0 n (%) | Electrocardiogram QT prolonged, Grade 5 [1]: 0 n (%) | Electrocardiogram QT prolonged, Missing or Unknown [1]: 0 n (%) | Electrocardiogram QT prolonged, Total [1]: 3 (20.0) n (%) | Fatigue, Grade 1 [1]: 1 (6.7) n (%) | Fatigue, Grade 2 [1]: 0 n (%) | Fatigue, Grade 3 [1]: 0 n (%) | Fatigue, Grade 4 [1]: 0 n (%) | Fatigue, Grade 5 [1]: 0 n (%) | Fatigue, Missing or Unknown [1]: 0 n (%) | Fatigue, Total [1]: 1 (6.7) n (%) | Gamma-glutamyl transferase increased, Grade 1 [1]: 1 (6.7) n (%) | Gamma-glutamyl transferase increased, Grade 2 [1]: 0 n (%) | Gamma-glutamyl transferase increased, Grade 3 [1]: 0 n (%) | Gamma-glutamyl transferase increased, Grade 4 [1]: 0 n (%) | Gamma-glutamyl transferase increased, Grade 5 [1]: 0 n (%) | Gamma-glutamyl transferase increased, Missing or Unknown [1]: 0 n (%) | Gamma-glutamyl transferase increased, Total [1]: 1 (6.7) n (%) | Gastrointestinal disorders, Grade 1 [1]: 4 (26.7) n (%) | Gastrointestinal disorders, Grade 2 [1]: 0 n (%)
